What was measured:
[1] = system: soil urease (Hastings silt loam); test: Urea hydrolysis in bands of urea plus inhibitor in soil (banded soil system); format: biochemical; conditions: for % inhibition, as measured by percent urea unhydrolyzed: 41 mg inhibitor + 410 mg urea per band, Hastings silt loam, 25° C.
Description: Another advantage of the banded configuration compared with mixing throughout the soil is that slightly soluble test compounds can be easily band applied, whereas it is difficult to achieve a known degree of mixing of a small quantity of slightly soluble test compound with soil. The banded configuration also enables testing for urease inhibition under realistic soil conditions prior to the development of techniques for cogranulating a wide range of test compounds with urea. […] Urease-active soil (Hastings silt loam) was moistened to a moisture content of 20% (dry weight basis) and preincubated at room temperature for two days. Plexiglas containers (6×6×6 -cm) were one-half filled with soil and packed to a bulk density of 1.1 g/cm^3. Urea or urea plus inhibitor (thoroughly mixed) was distributed in a narrow band 6-cm long on the soil surface. The containers then were filled with soil, again packing to a bulk density of 1.1 g/cm^3. The containers were incubated at 25° C. for the desired reaction period, after which the containers were frozen to about -5° C. to stop urea hydrolysis. Immediately prior to extracting the remaining urea from the soil, said soil was allowed to thaw. Soil from each container was thoroughly mixed, and a 10-g sample was extracted with 100 ml of 2 M KCl containing phenylmercuric acetate to prevent urea hydrolysis during handling [L. A. Douglass and J. M. Bremner, Soil Sci. Soc. Am.
Urease-active soil (Hastings silt loam) was moistened to a moisture content of 20% and preincubated at room temperature for two days. Plexiglas containers (6×6×6 cm) were one-half filled with soil and packed to a bulk density of 1.1 g/cm^3. Urea or urea plus inhibitor (thoroughly mixed) was distributed in a narrow band 6-cm long on the surface of the soil. The containers then were filled with soil and again packed to a bulk density of 1.1 g/cm^3. The containers were incubated at 25° C. for the desired reaction period. The soil from each container was thoroughly mixed, and a 10-g sample was extracted with 100 ml of 2 M KCl containing 5 ppm phenylmercuric acetate to prevent urea hydrolysis during handling [L. A. Douglass and J. M. Bremner, Soil Sci. Soc. Am. […] The urea in the extracts was determined colorimetrically as a measure of the unhydrolyzed urea.

[2] = system: soil urease (Crowley silt loam); test: Well-mixed inhibitor-soil incubation test, urea added at intervals (modified Douglass and Bremner procedure); format: biochemical; conditions: for Percent urea unhydrolyzed (higher = more urease inhibition): 7 micromoles per 120 g Crowley soil, 30° C., 16 hours with urea
Protocol: Test compounds in Example II, infra, were evaluated in soil systems by a modification of the Douglass and Bremner procedure [L. A. Douglass and J. W. Bremner, Soil Biol. Biochem. 3, 309-315 (1971)] in which solutions or suspensions of the test compounds were mixed throughout the soil. Then at selected time intervals urea was added to the soil-inhibitor mixtures. The advantage of this procedure is that soil urease inhibition by the test compounds can be detected for time periods lasting up to several weeks or longer.
(§1) Specifics of the procedure for evaluating the test compounds in Example II were the following. Urease-active soil (Crowley silt loam from Louisiana) was moistened to a moisture content of 16% (dry weight basis) and preincubated at room temperature for two days. One milliliter of solution or suspension containing 7 micromoles of each test compound was added to 120 g of moist soil and mixed well. Polyvinylchloride cylinders 12-cm long and 4 cm in diameter were filled with the inhibitor-soil mixtures, packed to a bulk density of about 0.9 g/cm^3, and covered with a perforated plastic film. […] At each time interval, 1 ml of urea solution containing 50 mg of urea was mixed well with the inhibitor-soil mixture from a single column. The urea-inhibitor-soil mixture was packed in a column to a bulk density of about 0.9 g/cm^3, covered with a perforated plastic film, and reincubated for 16 hours at 30° C. Following the 16 hours of reincubation, about 120 g of the urea-inhibitor-soil mixture was extracted with 250 ml of 2 M KCl containing 5 ppm of […]. The KCl-PPDA extracts were analyzed on the Auto Analyzer II [Technicon method No. 40001 FD4, Technicon, Tarrytown, N.Y., U.S.A. (1974)]. Three replicates were used on all treatments and checks.
as §1, with “are as follows.” for “were the following.”, “New York,” for “N.Y.,”, “checks. Two groups of compounds were tested as indicated in Table IV as Test Series I and Test Series II.” for “checks.”

urease [3] = conditions: literature and earlier patents; cited from earlier work
urease [4] = conditions: IFDC, unpublished results; cited from earlier work
[5] = Test Series I, inhibitor incubation 0 days
[6] = Test Series I, inhibitor incubation 3 days
[7] = Test Series I, inhibitor incubation 7 days
[8] = Test Series I, inhibitor incubation 14 days
[9] = Test Series I, inhibitor incubation 21 days
[10] = Test Series I, inhibitor incubation 35 days
[11] = Test Series II, inhibitor incubation 0 days
[12] = Test Series II, inhibitor incubation 7 days
[13] = Test Series II, inhibitor incubation 15 days
[14] = Test Series II, inhibitor incubation 21 days

SMILES | % inhibition, as measured by percent urea unhydrolyzed ([1]; Test Series I, 3 days) | % inhibition, as measured by percent urea unhydrolyzed ([1]; Test Series I, 6 days) | % inhibition, as measured by percent urea unhydrolyzed ([1]; Test Series II, 0 days) | % inhibition, as measured by percent urea unhydrolyzed ([1]; Test Series II, 3 days) | % inhibition, as measured by percent urea unhydrolyzed ([1]; Test Series II, 6 days) | Percent urea unhydrolyzed (higher = more urease inhibition) [2, 5] | Percent urea unhydrolyzed (higher = more urease inhibition) [2, 6] | Percent urea unhydrolyzed (higher = more urease inhibition) [2, 7] | Percent urea unhydrolyzed (higher = more urease inhibition) [2, 8] | Percent urea unhydrolyzed (higher = more urease inhibition) [2, 9] | Percent urea unhydrolyzed (higher = more urease inhibition) [2, 10] | Percent urea unhydrolyzed (higher = more urease inhibition) [2, 11] | Percent urea unhydrolyzed (higher = more urease inhibition) [2, 12] | Percent urea unhydrolyzed (higher = more urease inhibition) [2, 13] | Percent urea unhydrolyzed (higher = more urease inhibition) [2, 14] | urease inhibition (in words) reported by previous workers (urease [3]) | type of urease inhibition (urease [4]) | effectiveness as an inhibitor of soil urease activity compared with PPDA (in words) ([1]; Table III, FIGS. 1 and 2, three-day and six-day tests) | urease inhibitory activity remaining after long inhibitor incubation (in words) ([2]; up to 21 days incubation, Table IV, FIGS. 3 and 4)
NP(N)(=O)Oc1ccccc1 [PPDA, Phenyl phosphorodiamidate] | 62.6% | 10.1% | 96.4% | 90.3% | 58.2% | 100% | 65% | 59% | 33% | 13% | 2% | 89% | 38% | 37% | 11% | extremely potent inhibitor of urease activity | competitive inhibition | – | –
NP(N)(N)=O [PTA, Phosphoryl triamide] | 54.6% | 2.6% | – | – | – | – | – | – | – | – | – | – | – | – | – | powerful urease inhibitors | – | – | –
NP(N)(=S)Oc1ccccc1 [PTPDA, Phenylthiophosphenyl diamidate] | – | – | 100.0% | 97.2% | 65.7% | – | – | – | – | – | – | 56% | 21% | 24% | 2% | less effective as an inhibitor | – | – | –
NP(N)(N)=S [TPTA, Thiophosphoryl triamide] | 71.7% | 34.9% | 100.0% | 88.0% | 61.1% | 59% | 54% | 54% | 19% | 27% | 2% | 47% | 13% | 37% | 18% | ineffective as a urease inhibitor | – | superior to PPDA | superior
NP(N)(=O)O [diamidophosphoric acid] | – | – | – | – | – | – | – | – | – | – | – | – | – | – | – | effective urease inhibitors | – | – | –
Oc1ccc(O)cc1 [hydroquinone] | – | – | – | – | – | – | – | – | – | – | – | – | – | – | – | – | mixed inhibition mechanism | – | –
NP(=O)(O)O [monoamidophosphoric acid] | – | – | – | – | – | – | – | – | – | – | – | – | – | – | – | effective urease inhibitors | – | – | –

— USH25H, “Thiophosphoryl triamide as a urease inhibitor” (Tennessee Valley Authority, priority 1985, dated 1986)
